Experimental findings from patent publication US8178515B2, “β-hydroxy-γ-aminophosphonates and methods for the preparation and use thereof” (Nucitec S.A. de C.V., priority 2008, dated 2012) are described below.

One series deals with chick embryos. In words: Teratogenicity assay in chick embryos. Particulars: for Deaths (embryos / total examined) / Embryonic region affected: Axial skeleton (abnormal embryos / total examined) / Embryonic region affected: CNS (abnormal embryos / total examined) / Embryonic region affected: Heart (abnormal embryos / total examined) / Embryonic region affected: Somites (abnormal embryos / total examined) / Embryonic region affected: Vasculature (abnormal embryos / total examined): 48 h of exposition. The protocol:
A teratogenicity assay was carried out as described by Jelinek et al., Func. Devel. Morph. 4:317-23 (1994). Fertile White Leghorn chicken eggs were obtained from A.L.P.E. S.A. (Puebla, Mexico) and were stored at 6° C. Sixty fertilized eggs were weighed, sterilized, and divided into […]. First group served as a non-treated control. The next three were exposed to the diastereomeric mixture of compound 7 (1, 10, and 100 μM). The last group received caffeine (10 mg/mL) and as positive control. Test solutions (1 mL) were added to the air sac under sterile conditions. Each solution was injected after drilling into the shell at the blunt end of the egg; after injection, the holes were immediately sealed with melted paraffin wax. The eggs were then transferred and maintained in a forced draft incubator at 37.5° C. with a relative humidity of 55% until the desired stage of development was reached.
To determine the concentration dependency of the diastereomeric mixture of compound 7, a histological analysis was carried out. Embryos in each group were fixed in buffered formal saline (pH 7.4), dehydrated, and embedded in paraffin blocks. Paraffin tissue sections of 6 μm were stained with acetocarmine for routine histological examination.

Series [1] concerns WRL-68 cells.
Protocol: (§1) Two cell lines were used for this study: 293Q cells derived from normal epithelial cells of human fetal kidney (CRL-1573 ATCC) and WRL-68 cells derived from epithelial cells of human liver (CRL-48 ATCC). Cell lines were cultured in minimal essential medium (MEM, GIBCO BRL Inc., Grand Island, N.Y.), supplemented with nonessential amino acids (GIBCO BRL Inc., Grand Island, N.Y.), 10% fetal calf serum (GIBCO BRL Inc., Grand Island, N.Y.), 1-glutamine (2 mol/L), and antibiotics. Cells were plated in 100-mm culture dishes (10^6 cells/dish), and maintained at 37° C. under an atmosphere of 5% CO2 in humidified air. Subcultures were obtained by trypsinization (0.025% trypsin solution containing 0.01% N,N-diethyldithiocarbamic acid sodium salt, EDTA). For cytological investigation, 10^5 cells per mL of MEM medium were used. […] After incubation of the cells with the extract, they were collected for further cytological investigations.
(§2) Cells were incubated in 96-well plates. After 24 h, the medium was removed; the cells were washed twice with PBS and then incubated with analog. […] Cell viability was measured by a 3-(4,5-dimethylthiazol-2-yl)-2,5-diphenyltetrazolium bromide (MTT) assay (Wang et al., Journal Ocular. Pharm. Ther. 12: 35-43 (1996)). […] When the blue crystals were dissolved, the optical density was determined on a microplate reader at 450 nm. […]
Series [2] concerns WRL-68 cells. In words: Utilization of glucose in hepatic cells, in vitro hyperglycemia model (glucose and glycogen levels). Format: cell-based, human. The following applies: 24 hours; for reduction of extracellular glucose levels: conditioned media, 30 mM D-glucose medium. The protocol: WRL-68 cells were thawed and maintained in culture with Minimal Essential Medium (Gibco BRL) containing 4 mM Glutamine, 1% non essential aminoacids (Gibco BRL), 10% Fetal Calf Serum (FCS), and 100 μg/ml of ampicillin. WRL-68 cells were seeded at […] in complete media in 75 cm^2 cell culture flasks, cells were maintained for 24 hours at 37° C. under an atmosphere of 5% CO2. The medium was changed after 24 hr. Cells were passaged by trypsinization using a 0.025% trypsin solution containing 0.01% N,N,-di-ethyldithiocarbamic acid sodium salt (EDTA). In order to evaluate the effect of analog of carnitine on utilization of glucose levels a model of hyperglycemia in vitro (Nakajina et al., J. Biol. Chem. 275:20880-20886 (2000)) was developed. Two days after plating, the medium was changed to F-12K containing 7 mM D-glucose and 10% fetal bovine serum, and the culture was continued for 2 more days. The cells were then cultured in serum-free F-12K medium containing 30 mM D-glucose for 24 h. Cells were treated with the diastereomeric mixture of compound 7 at concentrations of 0.01, 0.1, 1,10, 100 μM, and 1 mM and 2 mM during 24 hours. Samples of conditioned media and cell lysates were kept to […]. Glucose and glycogen levels were measured by using a Glucose PAP-SL Kit (Tech, USA) and glycogen assay kit (Biovision Research Products, California, USA).

Protocol for 293Q cells: as §1, §2

Take `CC(C)CC(C(O)CP(=O)(O)O)[N+](C)(C)C.[I-]` (single isomer, unassigned) [diastereomeric mixture of compound 7]: the “alterations in embryos (histological analysis)” value with chick embryos (in vivo) is “No alterations”. In addition, the “effects on cell proliferation (MTT)” value in the series on WRL-68 cells [1] and with 293Q cells was “did not show citotoxicity or effects on cell proliferation” each time. Further, the “reduction of extracellular glucose levels” value in the series with WRL-68 cells [2] (1 μM) is 16%; in the series with WRL-68 cells [2] (10 μM) it was 18%; in the series on WRL-68 cells [2] (100 μM) it was 23%; in the series with WRL-68 cells [2] (1 mM) it was 30%; with WRL-68 cells [2] (2 mM) it was 32%. Also, the cellular glycogen levels result with WRL-68 cells [2] (2 mM) was “increase”. Moreover, the “changes in cellular glucose” value in the series with WRL-68 cells [2] (any concentration (0.01 μM to 2 mM)) is “No changes”.

Consider `Cn1c(=O)c2c(ncn2C)n(C)c1=O` [Caffeine, caffeine, reference compound], for which, in the series with chick embryos (positive control, 10 mg/mL), the “Deaths (embryos / total examined)” value is 2/10, the “Embryonic region affected: Axial skeleton (abnormal embryos / total examined)” value is 10/10, the “Embryonic region affected: CNS (abnormal embryos / total examined)” value is given as 8/10 and the “Embryonic region affected: Heart (abnormal embryos / total examined)” value was 8/10. For the same compound, in the series on chick embryos (positive control, 10 mg/mL), the “Embryonic region affected: Somites (abnormal embryos / total examined)” value is reported as 8/10 and the “Embryonic region affected: Vasculature (abnormal embryos / total examined)” value is 6/10.

Take `CC(C)C[C@@H]([C@@H](O)CP(=O)(O)O)[N+](C)(C)C.[I-]` [compound 7, (2R,3S)-(2-hydroxy-5-methyl-3-trimethylamonium-hexyl)-phosphonic acid; iodide]: in the series with chick embryos (1 μM), the “Deaths (embryos / total examined)” value is on record as 0/10, the “Embryonic region affected: Axial skeleton (abnormal embryos / total examined)” value is reported as 0/10, the “Embryonic region affected: CNS (abnormal embryos / total examined)” value is reported as 0/10 and the “Embryonic region affected: Heart (abnormal embryos / total examined)” value is 0/10. In the series with chick embryos (1 μM), the “Embryonic region affected: Somites (abnormal embryos / total examined)” value is on record as 0/10 and the “Embryonic region affected: Vasculature (abnormal embryos / total examined)” value is reported as 0/10. In the series on chick embryos (100 μM), the “Deaths (embryos / total examined)” value is reported as 0/10, the “Embryonic region affected: Axial skeleton (abnormal embryos / total examined)” value was 0/10, the “Embryonic region affected: CNS (abnormal embryos / total examined)” value was 0/10 and the “Embryonic region affected: Heart (abnormal embryos / total examined)” value is given as 0/10. In the series on chick embryos (100 μM), the “Embryonic region affected: Somites (abnormal embryos / total examined)” value is listed as 0/10 and the “Embryonic region affected: Vasculature (abnormal embryos / total examined)” value is reported as 0/10. Besides, in the series on chick embryos (1 mM), the “Deaths (embryos / total examined)” value is given as 0/10, the “Embryonic region affected: Axial skeleton (abnormal embryos / total examined)” value is 0/10, the “Embryonic region affected: CNS (abnormal embryos / total examined)” value is on record as 0/10 and the “Embryonic region affected: Heart (abnormal embryos / total examined)” value is given as 0/10. Further, in the series on chick embryos (1 mM), the “Embryonic region affected: Somites (abnormal embryos / total examined)” value was 0/10 and the “Embryonic region affected: Vasculature (abnormal embryos / total examined)” value is reported as 0/10.
